± gives the expanded uncertainty stated by the source.
Conditions: 101.33 kPa, Liquid; for speed of sound: Sing-around technique in a fixed-path interferometer; for mass density: Vibrating tube method

speed of sound (278.15 K) [m/s] | mass density (278.15 K) [kg/m3] | speed of sound (288.15 K) [m/s] | mass density (288.15 K) [kg/m3] | speed of sound (298.15 K) [m/s] | mass density (298.15 K) [kg/m3] | speed of sound (308.15 K) [m/s] | mass density (308.15 K) [kg/m3] | speed of sound (318.15 K) [m/s] | mass density (318.15 K) [kg/m3] | speed of sound (328.15 K) [m/s] | mass density (328.15 K) [kg/m3] | SMILES
1482.2 ± 2.1 | 1400.51 ± 1.8 | 1458.3 ± 2.1 | 1392.02 ± 1.8 | 1435.6 ± 2.1 | 1383.58 ± 1.7 | 1413.2 ± 2.1 | 1375.19 ± 1.7 | 1391.3 ± 2.1 | 1366.86 ± 1.7 | 1369.7 ± 2.1 | 1358.59 ± 1.7 | CCn1cc[n+](C)c1.O=S(=O)([O-])C(F)(F)F [1-ethyl-3-methylimidazolium trifluoromethanesulfonate]
1208.5 ± 0.74 | 797.34 ± 0.12 | 1173.1 ± 0.73 | 789.22 ± 0.13 | 1138.2 ± 0.72 | 780.89 ± 0.13 | 1103.2 ± 0.71 | 772.28 ± 0.13 | 1068.1 ± 0.7 | 763.32 ± 0.14 | 1032.6 ± 0.69 | 753.95 ± 0.14 | CC(C)O [propan-2-ol]
1375 ± 0.87 | 903.71 ± 0.09 | 1325.8 ± 0.85 | 892.92 ± 0.09 | 1277.4 ± 0.83 | 882.02 ± 0.1 | 1229.6 ± 0.81 | 871 ± 0.1 | 1182.4 ± 0.8 | 859.84 ± 0.11 |  |  | C1CCOC1 [tetrahydrofuran]
